Data on 54 molecules can be found in ChEMBL document CHEMBL4393657, “Tetrazole hybrids and their antifungal activities” (2019).

Structures are written as SMILES. Converted amounts (≈) assume the structure as drawn.

Common to all, as to format: functional
Experiment [1] concerns Candida albicans. Kind of experiment: Antifungal activity against Candida albicans ATCC 885653 assessed as inhibition zone at 100 ug/ml incubated for 48 to 72 hrs by agar-diffusion method. Conditions: read-out: IZ.
Experiment [2] has as its system Candida albicans. Kind of experiment: Antifungal activity against Candida albicans NCCS 3471 assessed as inhibition zone at 50 ug/ml incubated for 3 to 4 days by disk diffusion method. The conditions noted are these: read-out: IZ.
Experiment [3] concerns Aspergillus fumigatus. In words: Antifungal activity against Aspergillus fumigatus NCIM 902 assessed as inhibition zone at 50 ug/ml incubated for 3 to 4 days by disk diffusion method. Conditions: read-out: IZ.
Experiment [4] relates to Candida albicans. In words: Antifungal activity against Candida albicans assessed as inhibition zone at 125 ug/ml by disk diffusion method. The conditions noted are these: read-out: IZ.
For experiment [5], the system named is Aspergillus niger. In words: Antifungal activity against Aspergillus niger assessed as reduction in fungal cell growth incubated for 48 hrs by broth microdilution susceptibility method.
Experiment [6] has as its system Candida albicans. Kind of experiment: Antifungal activity against Candida albicans assessed as reduction in fungal cell growth incubated for 48 hrs by broth microdilution susceptibility method.
Experiment [7] relates to Candida albicans. In words: Antifungal activity against Candida albicans TA.
The subject of experiment [8] is Candida albicans. In words: In vivo antifungal activity against Candida albicans TA infected in CDF-1 mouse dosed orally assessed as survival of mouse. The conditions noted are these: po.
Experiment [9] concerns Candida albicans. In words: Antifungal activity against Candida albicans assessed as inhibition zone at 250 ug/ml. Conditions: read-out: IZ.
The subject of experiment [10] is Aspergillus niger. Kind of experiment: Antifungal activity against Aspergillus niger assessed as inhibition zone at 250 ug/ml. Conditions: read-out: IZ.

`Cc1ccc(C(=O)CSc2nc3ccccc3c3nnnn23)cc1`: the zone of inhibition at 100 µg/mL in experiment [1] was in the range of 6 to 22 mm.
As for `COc1ccccc1-n1nnnc1-c1cccnc1`, the zone of inhibition at 50 µg/mL in experiment [2] and in experiment [3] was 10 to 19 mm each time.
As for `Clc1ccc(/N=C/c2cc3cc(-c4nc5ccccc5[nH]4)ccc3n3nnnc23)cc1`, the zone of inhibition at 125 µg/mL in [4] was in the range of 7 to 12 mm.
Consider `c1ccc(-n2nnnc2-c2cccnc2)cc1`, for which the zone of inhibition at 50 µg/mL in experiment [2] and in experiment [3] was 10 to 19 mm each time.
Turning to `COc1ccc(-c2nn[se]c2-n2nnc(-c3ccc(C)cc3)n2)cc1`, the MIC in experiment [5] and in experiment [6] was 100 to 400 µg/mL (≈ 252 to 1010 µM) throughout.
`C[C@@H](n1ncnn1)[C@](O)(Cn1cncn1)c1ccc(F)cc1` registered an MIC in experiment [7] of 100 µg/mL (≈ 330 µM).
Regarding `C[C@@H](n1nnn(-c2ccc(F)cc2)c1=O)[C@](O)(Cn1cncn1)c1ccccc1`, the ED50 in experiment [8] lay in the range of 0.71 to 2 mg/kg.
On the same count and under the same terms, the value for `C[C@@H](n1nnn(-c2ccc(OCC(F)(F)C(F)(F)F)cc2)c1=O)[C@](O)(Cn1cncn1)c1ccccc1` was 0.71 to 2 mg/kg.
With `Brc1ccc(-n2nnnc2-c2cccnc2)cc1`, the zone of inhibition at 50 µg/mL was determined as 19 mm in [2] and 17 mm in experiment [3].
On to `C[C@@H](n1ncnn1)[C@](O)(Cn1cncn1)c1ccccc1F`, for which the minimum inhibitory concentration (MIC) in experiment [7] came out at 100 µg/mL (≈ 330 µM).
On to `O=C(O)c1ccc(/N=C/c2cc3cc(-c4nc5ccccc5[nH]4)ccc3n3nnnc23)cc1`, for which the zone of inhibition at 125 µg/mL in experiment [4] was 7 to 12 mm.
For the molecule `Clc1ccc(-c2nn[se]c2-n2nnc(-c3ccccc3)n2)cc1`, the MIC in experiment [5] and in experiment [6] was 100 to 400 µg/mL (≈ 258 to 1030 µM) in each case.
With `c1ccc(-c2nnnn2-c2nc3ccccc3s2)cc1`, the zone of inhibition at 250 µg/mL in experiment [9] and in experiment [10] was 13 to 23 mm in each case.
On to `Clc1ccc(-c2nn[se]c2-n2nnc(-c3ccccc3Cl)n2)cc1`, for which the MIC in experiment [5] and in experiment [6] was 6.25 µg/mL (≈ 14.8 µM) throughout.
`Cc1ccc(-n2nnnc2-c2cccnc2)cc1`: the zone of inhibition at 50 µg/mL in experiment [2] and in experiment [3] was 10 to 19 mm throughout.
Molecule `C[C@@H](n1cnnn1)[C@](O)(Cn1cncn1)c1ccc(Cl)cc1` yielded an MIC in experiment [7] of 12.5 to 100 µg/mL (≈ 39.1 to 313 µM). The ED50 in experiment [8] lay in the range of 0.18 to 1.54 mg/kg.
On to `COc1cc(-c2nnnn2-c2nc3ccccc3s2)cc(OC)c1OC`, for which the zone of inhibition at 250 µg/mL in [9] and in [10] was 13 to 23 mm throughout.
As to `Cc1ccc(-c2nnn(-c3[se]nnc3-c3ccc(Cl)cc3)n2)cc1`, the MIC in experiment [5] and in experiment [6] was 100 to 400 µg/mL (≈ 249 to 996 µM) throughout.
As for `COc1ccc(C(=O)CSc2nc3ccccc3c3nnnn23)cc1`, in experiment [1], the zone of inhibition at 100 µg/mL was in the range of 6 to 22 mm.
In the case of `O=[N+]([O-])c1cccc(-c2nnnn2-c2nc3ccccc3s2)c1`, the zone of inhibition at 250 µg/mL in experiment [9] and in [10] was 13 to 23 mm each time.
As to `CN(C)c1ccc(-c2nnnn2-c2nc3ccccc3s2)cc1`, the zone of inhibition at 250 µg/mL in experiment [9] and in experiment [10] was 13 to 23 mm in each case.
For the molecule `C[C@@H](n1ncnn1)[C@](O)(Cn1cncn1)c1ccc(F)cc1F`, the MIC in experiment [7] turned out to be 100 µg/mL (≈ 311 µM).
For the molecule `C(=N\c1ccccc1)/c1cc2cc(-c3nc4ccccc4[nH]3)ccc2n2nnnc12`, the zone of inhibition at 125 µg/mL in experiment [4] lay within 7 to 12 mm.
For the molecule `O=[N+]([O-])c1ccccc1-n1nnnc1-c1cccnc1`, the zone of inhibition at 50 µg/mL in experiment [2] and in experiment [3] was 10 to 19 mm in each case.
As for `Oc1cccc(-c2nnnn2-c2nc3ccccc3s2)c1`, the zone of inhibition at 250 µg/mL in [9] and in experiment [10] was 13 to 23 mm in each case.
On to `C[C@@H](n1nnn(-c2ccc(OC(F)(F)C(F)F)cc2)c1=O)[C@](O)(Cn1cncn1)c1ccccc1`, for which the median effective dose (ED50) in experiment [8] fell in the range of 0.71 to 2 mg/kg.
With `COc1ccc(-c2nn[se]c2-n2nnc(-c3ccccc3Cl)n2)cc1`, the MIC in experiment [5] and in experiment [6] was 100 to 400 µg/mL (≈ 239 to 958 µM) in each case.
On to `Oc1ccc(-c2nnnn2-c2nc3ccccc3s2)cc1`, for which the zone of inhibition at 250 µg/mL in experiment [9] and in [10] was 13 to 23 mm throughout.
As for `C[C@@H](n1nnn(-c2ccc(OCC(F)(F)F)cc2)c1=O)[C@](O)(Cn1cncn1)c1ccccc1`, in [8], the ED50 was 0.71 to 2 mg/kg.
`O=C(O)c1cccc(/N=C/c2cc3cc(-c4nc5ccccc5[nH]4)ccc3n3nnnc23)c1`: in experiment [4], the zone of inhibition at 125 µg/mL fell in the range of 7 to 12 mm.
With `Oc1ccc(/N=C/c2cc3cc(-c4nc5ccccc5[nH]4)ccc3n3nnnc23)cc1`, in [4], the zone of inhibition at 125 µg/mL lay in the range of 7 to 12 mm.
Take `COc1ccc(-n2nnnc2-c2cccnc2)cc1`: the zone of inhibition at 50 µg/mL in experiment [2] and in experiment [3] was 10 to 19 mm each time.
For the molecule `Cc1ccc(-c2nnnn2-c2nc3ccccc3s2)cc1`, the zone of inhibition at 250 µg/mL in [9] and in experiment [10] was 13 to 23 mm each time.
With `COc1ccc(OC)c(C(=O)CSc2nc3ccccc3c3nnnn23)c1`, in [1], the zone of inhibition at 100 µg/mL worked out at 22 mm.
Consider `COc1ccc(-c2nn[se]c2-n2nnc(-c3ccc(Cl)cc3)n2)cc1`, for which the MIC in [5] and in [6] was 100 to 400 µg/mL (≈ 239 to 958 µM) throughout.
As to `C[C@@H](n1ncnn1)[C@](O)(Cn1cncn1)c1ccc(Cl)cc1`, the minimum inhibitory concentration (MIC) in experiment [7] amounted to 100 µg/mL (≈ 313 µM).
As for `C[C@@H](n1nnn(-c2ccc(OC(F)(F)F)cc2)c1=O)[C@](O)(Cn1cncn1)c1ccccc1`, the ED50 in [8] was 0.71 to 2 mg/kg.
In the case of `Clc1ccc(-n2nnnc2-c2cccnc2)cc1`, the zone of inhibition at 50 µg/mL in [2] and in experiment [3] was 10 to 19 mm in each case.
Take `C[C@@H](n1nnn(-c2ccc(C(F)(F)F)cc2)c1=O)[C@](O)(Cn1cncn1)c1ccccc1`: in experiment [8], the 50% effective dose (ED50) is 0.71 to 2 mg/kg.
The same measure, in the same setting: the value for `C[C@@H](n1nnn(-c2ccc(OCC(F)(F)C(F)F)cc2)c1=O)[C@](O)(Cn1cncn1)c1ccccc1` was 0.71 to 2 mg/kg.
Take `Clc1cccc(-n2nnnc2-c2cccnc2)c1Cl`: the zone of inhibition at 50 µg/mL in [2] was 16 mm; in experiment [3] it was 18 mm.
In experiment [7], `C[C@@H](n1cnnn1)[C@](O)(Cn1cncn1)c1ccc(F)cc1` came in with an MIC of 12.5 to 100 µg/mL (≈ 41.2 to 330 µM). Moreover, in experiment [8], the 50% effective dose (ED50) was 0.18 to 1.54 mg/kg.
Molecule `C[C@@H](n1cnnn1)[C@](O)(Cn1cncn1)c1ccccc1F` showed an MIC in [7] of 12.5 to 100 µg/mL (≈ 41.2 to 330 µM). Moreover, the ED50 in [8] fell in the range of 0.18 to 1.54 mg/kg.
As to `O=[N+]([O-])c1ccc(/N=C/c2cc3cc(-c4nc5ccccc5[nH]4)ccc3n3nnnc23)cc1`, in [4], the zone of inhibition at 125 µg/mL was 7 to 12 mm.
As for `COc1ccc(/N=C/c2cc3cc(-c4nc5ccccc5[nH]4)ccc3n3nnnc23)cc1`, in [4], the zone of inhibition at 125 µg/mL was in the range of 7 to 12 mm.
With `O=[N+]([O-])c1ccc(-c2nnnn2-c2nc3ccccc3s2)cc1`, the zone of inhibition at 250 µg/mL in experiment [9] and in experiment [10] was 13 to 23 mm each time.
As for `O=[N+]([O-])c1ccc(-n2nnnc2-c2cccnc2)cc1`, the zone of inhibition at 50 µg/mL in experiment [2] and in experiment [3] was 10 to 19 mm each time.
On to `Cc1ccc(/N=C/c2cc3cc(-c4nc5ccccc5[nH]4)ccc3n3nnnc23)cc1`, for which, in experiment [4], the zone of inhibition at 125 µg/mL lay in the range of 7 to 12 mm.
For the molecule `Clc1ccc(-c2nnnn2-c2nc3ccccc3s2)cc1`, the zone of inhibition at 250 µg/mL in experiment [9] and in experiment [10] was 13 to 23 mm in each case.
For `Clc1ccccc1-n1nnnc1-c1cccnc1`, the zone of inhibition at 50 µg/mL was found to be 17 mm in experiment [2] and 15 mm in [3].
As for `COc1ccc(-c2nn[se]c2-n2nnc(-c3ccccc3)n2)cc1`, the minimal inhibitory concentration (MIC) in experiment [5] and in experiment [6] was 100 to 400 µg/mL (≈ 261 to 1040 µM) throughout.
`Cc1ccc(N2C(=O)/C(=C\c3ccccc3)C(=O)N(/N=C/c3cc4ccccc4n4nnnc34)C2=S)cc1`: in experiment [6], the MIC is at least 100 µg/mL.
In the case of `Clc1ccc(-c2nnn(-c3[se]nnc3-c3ccc(Cl)cc3)n2)cc1`, the MIC in [5] and in [6] was 6.25 µg/mL (≈ 14.8 µM) throughout.
On to `Oc1ccc(-c2nnnn2-c2nc3ccccc3s2)cc1O`, for which the zone of inhibition at 250 µg/mL in experiment [9] and in experiment [10] was 13 to 23 mm throughout.
